Patent US10471154B2, “Spirocyclic indolone polyethylene glycol carbonate compound, composition, preparation method and use thereof” (priority 2016, dated 2019)
In brackets after ≈: the same amount, converted by molar mass. Marks after values point to notes of the source that are not given here.

Experiments:
[1] = tested on: SJSA-1 xenografted tumor; experiment: Inhibitory effect on the growth of SJSA-1 xenografted tumor in nude mice; assay type: in vivo; details: for Tumor volumes X ± SD (mm^3), End: End (21 days after inoculation), doxorubicin 3.0 mg/kg i.p. x6, rac-SIP 30.0 mg/kg gavage x9, SIP-PEG compounds 30.0 mg/kg i.p. x9, rac-SIP-MPEG-2000 50.0 mg/kg i.p. x9; for Tumor volumes X ± SD (mm^3), Start: Start of administration (8 days after inoculation); for Weights of Tumor X ± SD: tumor peeled off 21 days after inoculation; for Weights of Tumor X ± SD / Inhibition rate (%) on the basis of tumor volume / Inhibition rate (%) on the basis of tumor weight: doses and routes as in E5; for Inhibition rate (%) on the basis of tumor volume / Inhibition rate (%) on the basis of tumor weight: vs saline control; for Inhibition rate (%) on the basis of tumor volume: End; for inhibitory effect on tumor growth compared with PEG-free rac-SIP given by gastrointestinal administration: administered by injection, 30.0 mg/kg (rac-SIP-MPEG-2000 50.0 mg/kg)
Procedure: 72 Female Balb/c/nu nude mice (weighting 15-19 g) were provided by Beijing Huafukang BioScience Co., Inc. Certificate No.: SOCK (Beijing) 2014-0004.
(§1) Doxorubicin: prepared in sterile physiological saline at a concentration of 0.3 mg/ml; the administration dosage was 3.0 mg/kg; and the administration volume was 10 ml/kg.
(§2) rac-SIP: prepared in a solvent consisting of 4% DMA, 30% PEG400, and 66% (by volume) sterile distilled water to a solution with a concentration of 1.5 mg/ml; the administration dosage was 30.0 mg/kg, and the administration volume was 20 ml/kg.
(§3) rac-SIP-PEG-2: prepared in a solvent consisting of polyoxyethylene castor oil:95% ethanol:sterile physiological saline (1.5:1.5:7 by volume) to drug solutions with concentrations of 1.5 mg/ml and 3.0 mg/ml. The administration dosages were 15.0 mg/kg and 30.0 mg/kg. The administration volume was 10 ml/kg.
(§4) rac-SIP-PEG-3: prepared in sterile physiological saline to a solution with a concentration of 3.0 mg/ml. The administration dose was 30.0 mg/kg. The administration volume was 10 ml/kg.
(§5) chiral-R-SIP-PEG-3: prepared in sterile physiological saline to a solution with a concentration of 3.0 mg/ml. The administration dose was 30.0 mg/kg. The administration volume was 10 ml/kg.
(§6) rac-SIP-PEG-7: prepared in sterile physiological saline to a solution with a concentration of 3.0 mg/ml. The administration dose was 30.0 mg/kg. The administration volume was 10 ml/kg.
(§7) The administration dose was 50.0 mg/kg. The administration volume was 10 ml/kg.
Doxorubicin: at a dose of 3.0 mg/kg, administered intraperitoneally, once every other day, for a total of 6 times.
rac-SIP: at a dose of 30.0 mg/kg, administered by gavage, once a day, 6 times a week, for a total of 9 times.
rac-SIP-PEG-2: at a dose of 30.0 mg/kg, administered intraperitoneally, once a day, 6 times a week, for a total of 9 times.
rac-SIP-PEG-3: at a dose of 30.0 mg/kg, administered intraperitoneally, once a day, 6 times a week, for a total of 9 times.
chiral-R-SIP-PEG-3: at a dose of 30.0 mg/kg, administered intraperitoneally, once a day, 6 times a week, for a total of 9 times.
rac-SIP-PEG-7: at a dose of 30.0 mg/kg, administered intraperitoneally, once a day, 6 times a week, for a total of 9 times.
(§8) Tumor cells (SJSA-1) were harvested under aseptic conditions, and were adjusted to a cell density of 1×10^7 cells/ml with sterile physiological saline. 0.2 ml was inoculated under the skin of the axilla of nude mice, and the tumor was grown to have a diameter of 1 cm. The tumor was removed under aseptic conditions and cut into tumor masses with a size of 2.0 mm×2.0 mm, and evenly inoculated under the skin of the axilla of the nude mice. When the tumor volume reached about 250 mm^3 (8 days after inoculation), the animals were administered in groups with 9 mice in each group, and the animals with poor tumor growth were excluded. The control group used physiological saline as a control. […] Body weight was weighted 3 times a week, and the length a and the width b of the tumor were measured with a vernier caliper, and the volume of the tumor was calculated according to the formula V=a×b^2/2, where a is the length of the tumor and b is the width of the tumor. 21 Days after the inoculation, the nude mice were dislocated and photographed, and then the tumor was peeled off, weighed and photographed. RTV (relative tumor volume) and tumor inhibition rate were calculated. At the same time, the peripheral blood of nude mice was taken to count blood cells.
(§9) The data were processed by EXCEL software and expressed by Mean±SD, and the inter-group analysis was statistically processed using t test.

[2] = Body weights of SJSA-1 implanted nude mice (side effects); assay type: in vivo; details: for Body Weights X ± SD (g), End: End (21 days after inoculation), doxorubicin 3.0 mg/kg i.p. x6, rac-SIP 30.0 mg/kg gavage x9, SIP-PEG compounds 30.0 mg/kg i.p. x9, rac-SIP-MPEG-2000 50.0 mg/kg i.p. x9; for body weight decreased, compared with the solvent control group: SIP-PEG compounds 30.0 mg/kg i.p. (MPEG-2000 50.0 mg/kg), SIP oral 30.0 mg/kg; for Body Weights X ± SD (g), Start: Start of administration, dose per group 3.0/30.0/50.0 mg/kg as in Table 1
Procedure: as §8, §9

[3] = physchem; details: 25 °C, water, thermodynamic from solid
[4] = Drug preparation: dissolving in physiological saline; assay type: physicochemical; details: 3.0 mg/ml (Example 14: 5.0 mg/ml) in sterile physiological saline
Procedure: as §1, §2, §3, §4, §5, §6, §7

| solubility at 24 h [3] | Compound | Tumor volumes X ± SD (mm^3), End [1] | Tumor volumes X ± SD (mm^3), Start [1] | Weights of Tumor X ± SD [1] | Inhibition rate (%) on the basis of tumor volume [1] | Inhibition rate (%) on the basis of tumor weight [1] | Body Weights X ± SD (g), End [2] | body weight decreased, compared with the solvent control group [2] | Body Weights X ± SD (g), Start [2] | inhibitory effect on tumor growth compared with PEG-free rac-SIP given by gastrointestinal administration [1] | dissolving in physiological saline for administration [4] | Inhibition rate (%) on the basis of tumor volume ([1]; listed as chiral-R-PEG-3) | body weight increased, compared with the solvent control group ([2]; 30.0 mg/kg i.p.) |
| --- | --- | --- | --- | --- | --- | --- | --- | --- | --- | --- | --- | --- | --- |
| < 100 µg/mL | COc1cc(C(N)=O)ccc1NC(=O)[C@@H]1N[C@@H](CC(C)(C)C)C2(C(=O)Nc3cc(Cl)ccc32)[C@H]1c1cccc(Cl)c1F (mixture of isomers) [rac-SIP, rac-spiroindolinone pyrrolidinecarboxamide, reference compound] | 1273.7 ± 506.9*** mm^3 | 249.4 ± 59.5 mm^3 | 1.37 ± 0.55 g | 54.89% | 49.69% | 14.1 ± 1.6 g | about 18% | 17.1 ± 0.8 g | – | – | – | – |
| > 400 µg/mL | COCCOCCOC(=O)OC(C)OC(=O)c1ccc(NC(=O)[C@@H]2N[C@@H](CC(C)(C)C)[C@@]3(C(=O)Nc4cc(Cl)ccc43)[C@H]2c2cccc(Cl)c2F)c(OC)c1 (mixture of isomers) [rac-SIP-PEG-2, Rac-9-oxo-2,5,8,10-tetraoxadodecan-11-yl-4-((2′S,3R,4′S,5′R)-6-chloro-4′-(3-chloro-2-fluorophenyl)-2′-neopentyl-2-oxospiro[indoline-3,3′-pyrrolidine]-5′-carboxamido)-3-methoxybenzoate] | 1260.8 ± 597.6*** mm^3 | 242.6 ± 49.9 mm^3 | 1.35 ± 0.64 g | 55.36% | 50.55% | 15.4 ± 1.0 g | about 9.4% | 17.0 ± 1.1 g | slightly better inhibitory effect | – | – | – |
| > 3000 µg/mL | COCCOCCOCCOC(=O)OC(C)OC(=O)c1ccc(NC(=O)[C@@H]2N[C@@H](CC(C)(C)C)[C@@]3(C(=O)Nc4cc(Cl)ccc43)[C@H]2c2cccc(Cl)c2F)c(OC)c1 (mixture of isomers) [rac-SIP-PEG-3, Rac-12-oxo-2,5,8,11,13-pentaoxapentadecan-14-yl-4-((2′S,3R,4′S,5′R)-6-chloro-4′-(3-chloro-2-fluorophenyl)-2′-neopentyl-2-oxospiro[indoline-3,3′-pyrrolidine]-5′-carboxamido)-3-methoxybenzoate] | 260.1 ± 219.3*** mm^3 | 246.4 ± 23.6 mm^3 | 0.20 ± 0.20 g | 90.79% | 92.86% | 15.9 ± 1.8 g | about 7.5% | 17.2 ± 0.7 g | stronger inhibitory effect | could be directly dissolved in physiological saline | – | – |
| 30000 µg/mL (≈ 29.3 mM) | COCCOCCOCCOCCOCCOCCOCCOC(=O)OC(C)OC(=O)c1ccc(NC(=O)[C@@H]2N[C@@H](CC(C)(C)C)[C@@]3(C(=O)Nc4cc(Cl)ccc43)[C@H]2c2cccc(Cl)c2F)c(OC)c1 (mixture of isomers) [rac-SIP-PEG-7, Rac-24-oxo-2,5,8,11,14,17,20,23,25-nonoxaheptacosan-26-yl-4-((2′S,3R,4′S,5′R)-6-chloro-4′-(3-chloro-2-fluorophenyl)-2′-neopentyl-2-oxospiro[indoline-3,3′-pyrrolidine]-5′-carboxamido)-3-methoxybenzoate] | 93.2 ± 65.2*** mm^3 | 247.6 ± 57.4 mm^3 | 0.08 ± 0.14 g | 96.38% | 97.06% | 16.1 ± 1.6 g | about 6.4% | 17.1 ± 0.7 g | stronger inhibitory effect | could be directly dissolved in physiological saline | – | – |
| < 100 µg/mL | COc1cc(C(=O)O)ccc1NC(=O)[C@@H]1N[C@@H](CC(C)(C)C)[C@@]2(C(=O)Nc3cc(Cl)ccc32)[C@H]1c1cccc(Cl)c1F (racemic) [rac-SIP-acid, rac-4-((2′S,3′R,4′S,5′R)-6-chloro-4′-(3-chloro-2-fluorophenyl)-2′-neopentyl-2-oxospiro[indoline-3,3′-pyrrolidine]-5′-carboxamido)-3-methoxybenzoic acid, reference compound] | – | – | – | – | – | – | – | – | – | – | – | – |
| > 8000 µg/mL | COCCOCCOCCOC(=O)OC(C)OC(=O)c1ccc(NC(=O)[C@@H]2N[C@@H](CC(C)(C)C)[C@@]3(C(=O)Nc4cc(Cl)ccc43)[C@H]2c2cccc(Cl)c2F)c(OC)c1 (single isomer, unassigned) [chiral-R-SIP-PEG-3] | 59.4 ± 46.3*** mm^3 | 252.9 ± 68.3 mm^3 | 0.06 ± 0.05 g | 97.90% | 97.84% | 19.2 ± 1.2 g | – | 17.3 ± 0.9 g | stronger inhibitory effect | could be directly dissolved in physiological saline | 97.9% | about 11% |
| – | COc1cccc2c1C(=O)c1c(O)c3c(c(O)c1C2=O)C[C@@](O)(C(=O)CO)C[C@@H]3O[C@H]1C[C@H](N)[C@H](O)[C@H](C)O1 [Doxorubicin ADM, Doxorubicin, reference compound] | 1401.1 ± 658.2*** mm^3 | 241.1 ± 46.6 mm^3 | 1.41 ± 0.66 g | 50.38% | 48.27% | 13.7 ± 0.7 g | – | 17.4 ± 0.7 g | – | – | – | – |
| – | Rac-4-((2′S,3′R,4′S,5′R)-6-chloro-4′-(3-chloro-2-fluorophenyl)-2′-neopentyl-2-oxospiro[indoline-3,3′-pyrrolidine]-5′-carboxamido)-3-methoxybenzoic acid methoxy polyethylene glycol 2000 carbonate [rac-SIP-MPEG-2000] | 102.5 ± 58.5*** mm^3 | 251.3 ± 39.8 mm^3 | 0.09 ± 0.09 g | 96.02% | 96.70% | 16.3 ± 1.5 g | about 5.2% | 17.4 ± 1.0 g | stronger inhibitory effect | could be directly dissolved in physiological saline | – | – |
